Test results: US8445473B2, “Heteroaryl-substituted bicyclic Smac mimetics and the uses thereof” (The Regents of the University of Michigan, priority 2008, dated 2013)

What was measured:
[1] = molecular target: T1, cIAP1 BIR3 domain (residues 253-363) (Homo sapiens, UniProt Q13490); assay: Fluorescence polarization competitive binding assay to cIAP1 BIR3; conditions: FP competitive binding, SM5F or SM-F1 as the tracer
T1 construct: The recombinant cIAP1 BIR3 domain (residues 253-363); His-tag
Description: (§1) In order to test the binding ability of conformationally constrained Smac mimetics to other IAP proteins (cIAP1 and cIAP2) binding assay conditions were developed. The recombinant cIAP1 BIR3 domain (residues 253-363), cIAP2 BIR3 domain (residues 238-349), fused to a His-tag, were used in the binding assays. Competitive binding assays for other IAP proteins are performed similarly as that described for XIAP BIR3.
(§2) In competitive binding experiments using SM5F as the tracer to cIAP-1 BIR3 protein, the tested compound was incubated with cIAP-1 BIR3 protein (10 nM) and SM5F (2 nM) in the assay buffer. In competitive binding experiments using SM5F as the tracer to cIAP-2 BIR3 protein, the tested compound was incubated with cIAP-2 BIR3 protein (25 nM) and SM5F (2 nM) in the assay buffer. All other procedures for cIAP-1 BIR3 and cIAP-2 BIR3 proteins were the same as those used for XIAP BIR3 protein competitive assays.
(§3) In competitive binding experiments using SM-F1 as the tracer to cIAP-1 BIR3 protein, the tested compound was incubated with cIAP-1 BIR3 protein (3 nM) and SM-F1 (1 nM) in the assay buffer. In competitive binding experiments using SM-F1 as the tracer to cIAP-2 BIR3 protein, the tested compound was incubated with cIAP-2 BIR3 protein (5 nM) and SM-F1 (1 nM) in the assay buffer.

[2] = molecular target: T2, XIAP BIR3 protein (Homo sapiens, UniProt P98170); assay: Fluorescence polarization competitive binding assay to XIAP BIR3; conditions: FP competitive binding, SM5F or SM-F1 as the tracer
T2 sequence (P98170 241-356 limits assumed): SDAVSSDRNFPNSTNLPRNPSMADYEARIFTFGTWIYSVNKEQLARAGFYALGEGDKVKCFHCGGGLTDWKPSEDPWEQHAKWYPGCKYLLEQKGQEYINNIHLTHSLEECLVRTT
Source text: A sensitive and quantitative in vitro binding assay using the fluorescence polarization (FP) based method was used to determine the binding affinity of Smac mimetics to XIAP protein (Nikolovska-Coleska et al., Anal. Biochem. 332:261-73 (2004)). For this assay, 5-carboxyfluorescein (5-Fam) was coupled to the lysine side chain of the mutated Smac peptide, AbuRPF-K-(5-Fam)-NH2 (termed SM5F). Another fluorescently tagged Smac mimetic (termed SM-F1) with higher affinities than SM5F was also used.
(§4) In competitive binding experiments using SM5F as the tracer to XIAP BIR3 protein, the tested compound was incubated with XIAP BIR3 protein (30 nM) and SM5F (5 nM) in the assay buffer (100 mM potassium phosphate, pH 7.5; 100 μg/ml bovine gamma globulin; 0.02% sodium azide, Invitrogen). Dose-dependent competitive binding FP experiments were carried out with serial dilutions of tested compounds. For each assay, the bound peptide control containing recombinant XIAP BIR3 protein and SM5F (equivalent to 0% inhibition) and free peptide control containing only free SM5F (equivalent to 100% inhibition) will be included. The polarization values were measured after 3 hrs of incubation when the binding reached equilibrium using an ULTRA READER (Tecan U.S. Inc., Research Triangle Park, N.C.). IC50 values, the inhibitor concentration at which 50% of bound peptide is displaced, will be determined from a plot using nonlinear least-squares analysis. Curve fitting will be performed using GRAPHPAD PRISM software (GraphPad Software, Inc., San Diego, Calif.).
as §4, with “using SM-F1” for “using SM5F”, “protein (10” for “protein (30”, “and SM-1F (2” for “and SM5F (5”, “and SM-1F” for “and SM5F”, “free SM-1F” for “free SM5F”
Negative controls containing protein/tracer complex only (equivalent to 0% inhibition), and positive controls containing only free tracers (equivalent to 100% inhibition), were included in each assay plate. FP values were measured as described above. IC50 values were determined by nonlinear regression fitting of the competition curves. The Ki values of competitive inhibitors were calculated using the equation described before (Nikolovska-Coleska et al., Anal. Biochem. 332:261-73 (2004)), based upon the measured IC50 values, the Kd values of the tracer to different proteins, and the concentrations of the proteins and tracers in the competitive assays. Ki values were also calculated using a commonly used equation known in the literature (Huang, X. J. Biomol. Screen. 8:34-38 (2003)).

[3] = molecular target: T3, cIAP2 BIR3 domain (residues 238-349) (Homo sapiens, UniProt Q13489); assay: Fluorescence polarization competitive binding assay to cIAP2 BIR3; conditions: FP competitive binding, SM5F or SM-F1 as the tracer
T3 construct: cIAP2 BIR3 domain (residues 238-349); His-tag
T3 sequence (Q13489 238-349): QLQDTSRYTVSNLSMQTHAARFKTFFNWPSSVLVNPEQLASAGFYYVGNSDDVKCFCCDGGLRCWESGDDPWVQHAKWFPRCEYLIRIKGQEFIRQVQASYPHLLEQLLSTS
Description: as §1, §2, §3

[4] = test system: SK-OV-3 ovarian cancer cell line; assay: Cell growth inhibition, WST-8 assay; format: cell-based; conditions: Homo sapiens, SK-OV-3, 96 h, 4 days
Description: (§5) The effect of the compounds of the present invention on the growth of various cancer cell lines was tested. Cells were seeded in 96-well flat bottom cell culture plates at a density of 3000 cells/well with a tested compound and incubated at 37° C. in an atmosphere of 95% air and 5% CO2 for 4 days. The rate of cell growth inhibition after treatment with different concentrations of the compound was determined using a WST-8 kit (2-(2-methoxy-4-nitrophenyl)-3-(4-nitrophenyl)-5-(2, 4 disulfophenyl)-2H-tetrazolium monosodium salt; Dojindo Molecular Technologies, Inc., Gaithersburg, Md.). WST-8 was added at a final concentration of 10% to each well, and then the plates were incubated at 37° C. for 2-3 hrs. The absorbance of the samples was measured at 450 nm using a ULTRA Tecan Reader (Molecular Device). The concentration of the tested compound that inhibited cell growth by 50% (IC50) was calculated by comparing absorbance in untreated cells and the cells treated with the tested compound.

[5] = test system: MDA-MB-231 human breast cancer cell line; assay: Cell growth inhibition, WST-8 assay; format: cell-based; conditions: MDA-MB-231, 96 h, 4 days
Description: as §5

[6] = Pharmacokinetics in rats following oral administration; conditions: rat, in vivo, male Sprague-Dawley rats, 25 mg/kg, mean±SD; for AUC(0-inf) / Cmax / Tmax: n=3; for half-life: n=3, read-out: half-life (T½) (converted)
[7] = test system: breast cancer MDA-MB-231 cell line; assay: Induction of cell death, trypan blue exclusion assay; format: cell-based, human; conditions: MDA-MB-231, 48 hours, FIG. 3
Description: (§6) The ability of SM-1238 to induce cell death was tested in the breast cancer MDA-MB-231 and ovarian cancer SK-OV-3 cell lines (FIG. 3). Cells were treated with SM-1238 for 48 hours and cell viability was determined using the trypan blue exclusion assay.

[8] = test system: ovarian cancer SK-OV-3 cell line; assay: as above; format: cell-based, human; conditions: SK-OV-3, 48 hours, FIG. 3
Description: as §6

[9] = molecular target: T4, recombinant cIAP-2 BIR3 (Homo sapiens, UniProt Q13489); conditions: tracer SM5F; Peng et al. 2008; cited from earlier work
T4 construct: cIAP2 BIR3 domain (residues 238-349); His-tag
T4 sequence (Q13489 238-349): as above

[10] = molecular target: T5, recombinant cIAP-1 BIR3 (Homo sapiens, UniProt Q13490); conditions: tracer SM5F; Peng et al. 2008; cited from earlier work
T5 construct: The recombinant cIAP1 BIR3 domain (residues 253-363); His-tag
T5 sequence (Q13490 253-363): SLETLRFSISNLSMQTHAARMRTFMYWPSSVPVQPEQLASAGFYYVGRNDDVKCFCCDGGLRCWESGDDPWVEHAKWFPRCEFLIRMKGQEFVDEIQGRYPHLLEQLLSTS

[11] = molecular target: T2, XIAP BIR3 protein; conditions: tracer SM5F; Nikolovska-Coleska et al. 2004; cited from earlier work
T2 sequence (P98170 241-356 limits assumed): as the sequence (P98170 241-356 limits assumed) above

[12] = molecular target: XIAP BIR3; conditions: background statement; cited from earlier work

T1 sequence (Q13490 253-363): as the sequence (Q13490 253-363) above

Row | IC50 [1] [nM] | IC50 [2] [nM] | IC50 [3] [nM] | IC50 [4] [nM] | IC50 [5] [nM] | AUC(0-inf) [6] [ng·h/mL] | Cmax [6] [ng/mL] | Tmax [6] [h] | half-life [6] [h] | Molecule | induction of cell death [7] | induction of cell death [8] | Kd [9] [nM] | Kd [10] [nM] | Kd [11] [nM] | Kd [12] [nM]
1 | < 100 | < 500 | < 100 | < 3000 | < 3000 |  |  |  |  | CN[C@@H](C)C(=O)N[C@H]1CN(C(=O)Cc2ccc(F)cc2)CC[C@H]2CC[C@@H](c3nc4c(-c5ccccc5F)cccc4[nH]3)N2C1=O [SM-1308] |  |  |  |  |  | 
2 | < 100 | < 500 | < 100 | < 3000 | < 3000 |  |  |  |  | CN[C@@H](C)C(=O)N[C@H]1CN(C(=O)Cc2ccc(F)cc2)CC[C@H]2CC[C@@H](c3nc4c(-c5ccc(F)cc5)cccc4[nH]3)N2C1=O [SM-1307] |  |  |  |  |  | 
3 | < 100 | < 500 | < 100 | < 3000 | < 3000 |  |  |  |  | CN[C@@H](C)C(=O)N[C@H]1CN(C(=O)CCc2ccccc2)CC[C@H]2CC[C@@H](c3nc4c(-c5ccccc5)cccc4[nH]3)N2C1=O [SM-1270] |  |  |  |  |  | 
4 | < 100 | < 500 | < 100 | < 3000 | < 3000 |  |  |  |  | CN[C@@H](C)C(=O)N[C@H]1CN(C(=O)Cc2ccccc2)CC[C@H]2CC[C@@H](c3nc4c(-c5ccc(F)cc5)cccc4[nH]3)N2C1=O [SM-1317] |  |  |  |  |  | 
5 | < 2000 | < 5000 | < 2000 | < 100000 | < 100000 |  |  |  |  | CN[C@@H](C)C(=O)N[C@H]1CCCC[C@H]2CC[C@@H](c3nc(-c4ccccc4)cs3)N2C1=O [SM-1229] |  |  |  |  |  | 
6 | < 100 | < 500 | < 100 | < 3000 | < 3000 |  |  |  |  | CN[C@@H](C)C(=O)N[C@H]1CN(C(=O)CCc2ccc(F)cc2)CC[C@H]2CC[C@@H](c3nc4c(-c5ccccc5)cccc4[nH]3)N2C1=O [SM-1271] |  |  |  |  |  | 
7 | < 100 | < 5000 | < 100 | < 3000 | < 3000 |  |  |  |  | CN[C@@H](C)C(=O)N[C@H]1CN(C(=O)Cc2ccc(F)cc2)CC[C@H]2CC[C@@H](c3nc4c(-c5cccc(F)c5)cccc4[nH]3)N2C1=O [SM-1306] |  |  |  |  |  | 
8 | < 100 | < 500 | < 100 | < 3000 | < 3000 | 6490 ± 965 | 612 ± 16 | 2 | 4.2 ± 1 | CN[C@@H](C)C(=O)N[C@H]1CN(C(=O)Cc2ccc(F)cc2)CC[C@H]2CC[C@@H](c3nc4c(-c5ccccc5)cccc4[nH]3)N2C1=O [SM-1268] |  |  |  |  |  | 

The next lines start with the molecule.

Row | Molecule | IC50 [1] [nM] | IC50 [2] [nM] | IC50 [3] [nM] | IC50 [4] [nM] | IC50 [5] [nM] | AUC(0-inf) [6] [ng·h/mL] | Cmax [6] [ng/mL] | Tmax [6] [h] | half-life [6] [h] | induction of cell death [7] | induction of cell death [8] | Kd [9] [nM] | Kd [10] [nM] | Kd [11] [nM] | Kd [12] [nM]
9 | CN[C@@H](C)C(=O)N[C@H]1CN(C(=O)Cc2ccccc2)CC[C@H]2CC[C@@H](c3nc4c(-c5ccccc5)cccc4[nH]3)N2C1=O [SM-1257] | < 100 | < 500 | < 100 | < 3000 | < 3000 |  |  |  |  |  |  |  |  |  | 
10 | CN[C@@H](C)C(=O)N[C@H]1CN(C(=O)CC(C)C)CC[C@H]2CC[C@@H](c3nc(-c4ccccc4)cs3)N2C1=O [SM-1235] | < 1000 | < 200 | < 1000 | < 3000 | < 3000 |  |  |  |  |  |  |  |  |  | 
11 | CN[C@@H](C)C(=O)N[C@H]1CN(C(=O)CC(C)C)CC[C@H]2CC[C@@H](c3nc4c(-c5ccccc5)cccc4[nH]3)N2C1=O [SM-1238] | < 100 | < 200 | < 100 | < 3000 | < 3000 | 7100 ± 931 | 831 ± 135 | 2 ± 1.7 | 3.7 ± 2 | induced cell death in both cell lines in a concentration-dependant fashion | induced cell death in both cell lines in a concentration-dependant fashion |  |  |  | 
12 | CN[C@@H](C)C(=O)N[C@H]1CN(C(=O)CC(C)C)CC[C@H]2CC[C@@H](c3nc4c(-c5ccc(F)cc5)cccc4[nH]3)N2C1=O [SM-1316] | < 100 | < 500 | < 100 | < 3000 | < 3000 | 14300 ± 1970 | 1530 ± 275 | 2 | 6.7 ± 1.2 |  |  |  |  |  | 
13 | AbuRPF-K-(5-Fam)-NH2 [SM5F] |  |  |  |  |  |  |  |  |  |  |  | 6.6 | 4.1 | 17.9 | 
14 | CN[C@@H](C)C(=O)N[C@H]1CCCC[C@H]2CC[C@@H](c3nc4c(-c5ccccc5)cccc4[nH]3)N2C1=O [SM-1237] | < 100 | < 200 | < 100 | < 3000 | < 3000 |  |  |  |  |  |  |  |  |  | 
15 | mature Smac protein: mature Smac/DIABLO protein, endogenous inhibitor of XIAP (protein, UniProt Q9NR28 22-239, looked up) Diablo IAP-binding …: LCVPVVANFKKRCFSELIRPWHKTVTIGFGVTLCAVPIAQKSEPHSLSSEALMRRAVSLVTDSTSTFLSQTTYALIEAITEYTKAVYTLTSLYRQYTSLLGKMNSEEEDEVWQVIIGARAEMTSKHQEYLKLETTWMTAVGLSEMAAEAAYQTGADQASITARNHIQLVKLQVEEVHQLSRKAETKLAEAQIEELRQKTQEEGEERAESEQEAYLRED |  |  |  |  |  |  |  |  |  |  |  |  |  |  | 420
